In patent US20250127824A1, “BACTERIAL STRAIN USED IN THE PREVENTION AND/OR TREATMENT OF INFLAMMATORY PATHOLOGIES” (VERB BIOTICS, priority 2021, published 2025):

Columns and labels:
[1] = test system: HT-29 colon adenocarcinoma line; test: IL-8 secretion by TNF-α-stimulated HT-29 cells, supernatant with or without 5-ASA or Budesonide; format: cell-based; conditions: TNF-α 5 ng/ml, 6 h, 10% supernatant
Protocol: The HT-29 cells (ECACC) were inoculated into 24-well plates at 3×10^5 cells per well in McCoy's 5A (Gibco) medium supplemented with 10% fetal calf serum (FCS, Gibco) and incubated at 37° C./5% […] for 24 h. The cells were washed with PBS-1× (Gibco) and cultivated for an additional 24 h in McCoy's 5A medium at 2% FCS. The cells were then stimulated for 6 hours with 5 ng/ml of TNF-α in the presence of 10% of supernatant in stationary phase of DSM 33715 or of bacterial culture medium as control (ctrl), whether or not in the presence of anti-inflammatory agents. 5-ASA (10 mM) and budesonide (20 μM) are molecules used in the treatment of inflammatory diseases, such as ulcerative colitis and Crohn's disease. After 6 h, the cell culture supernatants were collected and stored at −80° C. until the […] was quantified by ELISA. The IL-8 assay was carried out by BioLegend specific ELISA, according to the manufacturer's instructions. The absorbance at 460 nm was read using the FluoStar Omega microplate reader of BMG Labtech. Statistics: Sidak's multiple comparisons test. * p<0.05, ** p<0.01, *** […], **** p<0.0001. […]

JAK/STAT pathway = test: JAK/STAT luciferase reporter in IFN-γ-stimulated HT-29 cells, supernatant with or without Tofacitinib; format: cell-based; conditions: 10% supernatant, Tofacitinib 1 μM, 6 h
Protocol: HT-29 cells at a density of 3×10^5 cells/well, in 24-well plate, were transfected according to a reverse-transfection protocol, with 200 ng of pGL4 luc2P GAS-RE (IFN-γ-dependent JAK/STAT signaling pathway) and 10 ng of pRL-TK vector (Promega), using X-tremeGENE HP DNA transfection reagent with a 3:1 ratio (Roche). To summarize, the reactive/DNA transfection complexes were prepared in a final volume of 50 μl of McCoy's 5A without serum and without antibiotic, the appropriate amount of each plasmid was added and homogenized, and then the transfection agent was added (3:1). The transfection complexes were carefully mixed and incubated at room temperature for 15 minutes. After incubation, the transfection complexes were added to the freshly resuspended HT-29 cells at the appropriate density in McCoy's 5A medium supplemented with 10% FCS, and then the cell/transfection complex mixtures were gently homogenized and placed on plates. The plates were incubated for 24 h in a humid atmosphere at 5% C02 and the medium was then replaced with medium at 2% FCS for 12 h, after washing with PBS IX. […]
The activity of the luciferase Firefly was read. Then 50 μl reagent Stop&Glo was added and the measurement of the Renilla activity was read with the FLUOstar Omega plate reader (BMG Labtech). […]

Question: Which “secretion of IL-8 reduced relative to the control (Panel B)” value ([1]; budesonide 20 μM) does the source give for CCCC1O[C@@H]2C[C@H]3[C@@H]4CCC5=CC(=O)C=C[C@]5(C)[C@H]4[C@@H](O)C[C@]3(C)[C@]2(C(=O)CO)O1 (stereo partly drawn) [Budesonide] here?
Answer: The value was 38%.

Question: With Nc1ccc(O)c(C(=O)O)c1 [5-ASA] as the compound, how does the “secretion of IL-8 reduced relative to the control (Panel A)” value ([1]; 5-ASA 10 mM) read?
Answer: Its value is 38%.

Question: C[C@@H]1CCN(C(=O)CC#N)C[C@@H]1N(C)c1ncnc2[nH]ccc12 [Tofacitinib] was tested. Which “decrease in the IFN-γ-induced activation of the JAK/STAT pathway” value (JAK/STAT pathway) did it give?
Answer: Its value is 49%.
